{"source": "patent US20260130395A1", "about": "“Water Dispersible Botanical Compositions” (Aquila Black Limited, priority 2021, published 2026)", "key": {"[1]": {"assay": "Stability of cannabinoid compounds and Vitamin E components in Beverage 1 (AB White) by LCMSMS", "format": "physicochemical", "settings": "AB White stored at 21-25° C."}, "[2]": {"assay": "Stability of cannabinoid entourage and Vitamin E components of the powder concentrate by LCMSMS", "format": "physicochemical", "settings": "powder stored at 21-25° C.", "experimental": "At each time period, 0.05 g of powder was dissolved in 10 ml-15 of ethanol, diluted to fall within the analytical range, and injected into the LCMSMS for analysis."}}, "data": [{"smiles": "C=C(C)[C@@H]1CCC(C)=C[C@H]1c1c(O)cc(CCCCC)c(C(=O)O)c1O", "note": "[CBDA, cannabidiolic acid]", "values": [{"measurement": "Stability of Plant-Derived Cannabinoid Compounds in AB White, 21-25° C.", "setting": "[1]; 29 days", "value": 1.76, "unit": "µg/mL"}, {"measurement": "Stability of Plant-Derived Cannabinoid Compounds in AB White, 21-25° C.", "setting": "[1]; 30 days", "value": 1.71, "unit": "µg/mL"}, {"measurement": "Stability of Plant-Derived Cannabinoid Compounds in AB White, 21-25° C.", "setting": "[1]; 60 days", "value": 1.68, "unit": "µg/mL"}, {"measurement": "Stability of Plant-Derived Cannabinoid Compounds in AB White, 21-25° C.", "setting": "[1]; 90 days", "value": 1.67, "unit": "µg/mL"}, {"measurement": "Stability of Plant-Derived Cannabinoid Compounds in AB White, 21-25° C.", "setting": "[1]; 120 days", "value": 1.66, "unit": "µg/mL"}, {"measurement": "Stability of Plant-Derived Cannabinoid Compounds in AB White, 21-25° C.", "setting": "[1]; 150 days", "value": 1.64, "unit": "µg/mL"}, {"measurement": "Stability of Plant-Derived Cannabinoid Compounds in AB White, 21-25° C.", "setting": "[1]; 180 days", "value": 1.69, "unit": "µg/mL"}, {"measurement": "Stability of Plant-Derived Cannabinoid Compounds in AB White, 21-25° C.", "setting": "[1]; 210 days", "value": 1.73, "unit": "µg/mL"}, {"measurement": "Stability of Plant-Derived Cannabinoid Compounds in AB White, 21-25° C.", "setting": "[1]; 240 days", "value": 1.73, "unit": "µg/mL"}, {"measurement": "Stability of Plant-Derived Cannabinoid Compounds in AB White, 21-25° C.", "setting": "[1]; 270 days", "value": 1.71, "unit": "µg/mL"}, {"measurement": "Stability of Plant-Derived Cannabinoid Compounds in AB White, 21-25° C.", "setting": "[1]; 300 days", "value": 1.73, "unit": "µg/mL"}, {"measurement": "Stability of Plant-Derived Cannabinoid Compounds in AB White, 21-25° C.", "setting": "[1]; 330 days", "value": 1.72, "unit": "µg/mL"}, {"measurement": "Stability of Plant-Derived Cannabinoid Compounds in AB White, 21-25° C.", "setting": "[1]; 360 days", "value": 1.69, "unit": "µg/mL"}, {"measurement": "Stability of Plant-Derived Cannabinoid Compounds in AB White, 21-25° C.", "setting": "[1]; 390 days", "value": 1.67, "unit": "µg/mL"}, {"measurement": "Stability of Plant-Derived Cannabinoid Compounds in AB White, 21-25° C.", "setting": "[1]; 420 days", "value": 1.64, "unit": "µg/mL"}, {"measurement": "Stability of Plant-Derived Cannabinoid Compounds in AB White, 21-25° C.", "setting": "[1]; 450 days", "value": 1.70, "unit": "µg/mL"}, {"measurement": "Stability of Plant-Derived Cannabinoid Compounds in AB White, 21-25° C.", "setting": "[1]; 480 days", "value": 1.63, "unit": "µg/mL"}, {"measurement": "Stability of Plant-Derived Cannabinoid Compounds in AB White, 21-25° C.", "setting": "[1]; 510 days", "value": 1.66, "unit": "µg/mL"}, {"measurement": "Stability of Plant-Derived Cannabinoid Compounds in AB White, 21-25° C.", "setting": "[1]; 540 days", "value": 1.63, "unit": "µg/mL"}, {"measurement": "Stability of Plant-Derived Cannabinoid Compounds in AB White, 21-25° C.", "setting": "[1]; 570 days", "value": 1.61, "unit": "µg/mL"}, {"measurement": "Stability of Plant-Derived Cannabinoid Compounds in Powder Concentrate", "setting": "[2]; 0 days", "value": 0.410, "unit": "mg/g powder"}, {"measurement": "Stability of Plant-Derived Cannabinoid Compounds in Powder Concentrate", "setting": "[2]; 1 days", "value": 0.412, "unit": "mg/g powder"}, {"measurement": "Stability of Plant-Derived Cannabinoid Compounds in Powder Concentrate", "setting": "[2]; 2 days", "value": 0.407, "unit": "mg/g powder"}, {"measurement": "Stability of Plant-Derived Cannabinoid Compounds in Powder Concentrate", "setting": "[2]; 3 days", "value": 0.406, "unit": "mg/g powder"}, {"measurement": "Stability of Plant-Derived Cannabinoid Compounds in Powder Concentrate", "setting": "[2]; 5 days", "value": 0.414, "unit": "mg/g powder"}, {"measurement": "Stability of Plant-Derived Cannabinoid Compounds in Powder Concentrate", "setting": "[2]; 8 days", "value": 0.415, "unit": "mg/g powder"}, {"measurement": "Stability of Plant-Derived Cannabinoid Compounds in Powder Concentrate", "setting": "[2]; 9 days", "value": 0.410, "unit": "mg/g powder"}, {"measurement": "Stability of Plant-Derived Cannabinoid Compounds in Powder Concentrate", "setting": "[2]; 10 days", "value": 0.418, "unit": "mg/g powder"}, {"measurement": "Stability of Plant-Derived Cannabinoid Compounds in Powder Concentrate", "setting": "[2]; 11 days", "value": 0.415, "unit": "mg/g powder"}, {"measurement": "Stability of Plant-Derived Cannabinoid Compounds in Powder Concentrate", "setting": "[2]; 12 days", "value": 0.396, "unit": "mg/g powder"}, {"measurement": "Stability of Plant-Derived Cannabinoid Compounds in Powder Concentrate", "setting": "[2]; 15 days", "value": 0.399, "unit": "mg/g powder"}, {"measurement": "Stability of Plant-Derived Cannabinoid Compounds in Powder Concentrate", "setting": "[2]; 16 days", "value": 0.427, "unit": "mg/g powder"}, {"measurement": "Stability of Plant-Derived Cannabinoid Compounds in Powder Concentrate", "setting": "[2]; 17 days", "value": 0.421, "unit": "mg/g powder"}, {"measurement": "Stability of Plant-Derived Cannabinoid Compounds in Powder Concentrate", "setting": "[2]; 18 days", "value": 0.418, "unit": "mg/g powder"}, {"measurement": "Stability of Plant-Derived Cannabinoid Compounds in Powder Concentrate", "setting": "[2]; 19 days", "value": 0.414, "unit": "mg/g powder"}, {"measurement": "Stability of Plant-Derived Cannabinoid Compounds in Powder Concentrate", "setting": "[2]; 22 days", "value": 0.419, "unit": "mg/g powder"}, {"measurement": "Stability of Plant-Derived Cannabinoid Compounds in Powder Concentrate", "setting": "[2]; 23 days", "value": 0.396, "unit": "mg/g powder"}, {"measurement": "Stability of Plant-Derived Cannabinoid Compounds in Powder Concentrate", "setting": "[2]; 24 days", "value": 0.403, "unit": "mg/g powder"}, {"measurement": "Stability of Plant-Derived Cannabinoid Compounds in Powder Concentrate", "setting": "[2]; 25 days", "value": 0.401, "unit": "mg/g powder"}, {"measurement": "Stability of Plant-Derived Cannabinoid Compounds in Powder Concentrate", "setting": "[2]; 26 days", "value": 0.397, "unit": "mg/g powder"}, {"measurement": "Stability of Plant-Derived Cannabinoid Compounds in Powder Concentrate", "setting": "[2]; 29 days", "value": 0.426, "unit": "mg/g powder"}, {"measurement": "Stability of Plant-Derived Cannabinoid Compounds in Powder Concentrate", "setting": "[2]; 30 days", "value": 0.405, "unit": "mg/g powder"}, {"measurement": "Stability of Plant-Derived Cannabinoid Compounds in Powder Concentrate", "setting": "[2]; 60 days", "value": 0.418, "unit": "mg/g powder"}, {"measurement": "Stability of Plant-Derived Cannabinoid Compounds in Powder Concentrate", "setting": "[2]; 90 days", "value": 0.413, "unit": "mg/g powder"}, {"measurement": "Stability of Plant-Derived Cannabinoid Compounds in Powder Concentrate", "setting": "[2]; 120 days", "value": 0.403, "unit": "mg/g powder"}, {"measurement": "Stability of Plant-Derived Cannabinoid Compounds in Powder Concentrate", "setting": "[2]; 150 days", "value": 0.412, "unit": "mg/g powder"}, {"measurement": "Stability of Plant-Derived Cannabinoid Compounds in Powder Concentrate", "setting": "[2]; 180 days", "value": 0.422, "unit": "mg/g powder"}, {"measurement": "Stability of Plant-Derived Cannabinoid Compounds in Powder Concentrate", "setting": "[2]; 210 days", "value": 0.427, "unit": "mg/g powder"}, {"measurement": "Stability of Plant-Derived Cannabinoid Compounds in Powder Concentrate", "setting": "[2]; 240 days", "value": 0.417, "unit": "mg/g powder"}, {"measurement": "Stability of Plant-Derived Cannabinoid Compounds in Powder Concentrate", "setting": "[2]; 270 days", "value": 0.424, "unit": "mg/g powder"}, {"measurement": "Stability of Plant-Derived Cannabinoid Compounds in Powder Concentrate", "setting": "[2]; 300 days", "value": 0.409, "unit": "mg/g powder"}, {"measurement": "Stability of Plant-Derived Cannabinoid Compounds in Powder Concentrate", "setting": "[2]; 330 days", "value": 0.424, "unit": "mg/g powder"}, {"measurement": "Stability of Plant-Derived Cannabinoid Compounds in Powder Concentrate", "setting": "[2]; 360 days", "value": 0.413, "unit": "mg/g powder"}, {"measurement": "Stability of Plant-Derived Cannabinoid Compounds in Powder Concentrate", "setting": "[2]; 390 days", "value": 0.407, "unit": "mg/g powder"}, {"measurement": "Stability of Plant-Derived Cannabinoid Compounds in Powder Concentrate", "setting": "[2]; 420 days", "value": 0.420, "unit": "mg/g powder"}, {"measurement": "Stability of Plant-Derived Cannabinoid Compounds in Powder Concentrate", "setting": "[2]; 450 days", "value": 0.398, "unit": "mg/g powder"}, {"measurement": "Stability of Plant-Derived Cannabinoid Compounds in Powder Concentrate", "setting": "[2]; 480 days", "value": 0.418, "unit": "mg/g powder"}, {"measurement": "Stability of Plant-Derived Cannabinoid Compounds in Powder Concentrate", "setting": "[2]; 510 days", "value": 0.411, "unit": "mg/g powder"}, {"measurement": "Stability of Plant-Derived Cannabinoid Compounds in Powder Concentrate", "setting": "[2]; 540 days", "value": 0.425, "unit": "mg/g powder"}, {"measurement": "Stability of Plant-Derived Cannabinoid Compounds in Powder Concentrate", "setting": "[2]; 570 days", "value": 0.408, "unit": "mg/g powder"}]}]}
